Assays:
[1] = system: male Sprague Dawley rats; assay: Loss of righting reflex in rats; assay type: in vivo; conditions: Rat IV, 5 mpk
Description: Loss of Righting Reflex in Rats
The plasma pharmacokinetics and a qualitative assessment of sedation were obtained in male
Sprague Dawley rats according to the following procedure. Rats were dosed by intravenous bolus dose (60 seconds) via the foot dorsal vein at doses ranging from 5 to 15 mg/kg in an appropriate vehicle. In order to assess sedation, rats were gently restrained by hand to a lateral position for dose administration. […] If the animal was unable to return to an upright position, the time was recorded as the onset of loss of righting reflex (LRR). […] Sluggish or incomplete righting twice consecutively within a 30 second interval qualifies as a loss of righting reflex. After onset of LRR, animals were assessed every 5 minutes in the same manner. Recovery of righting reflex is defined as the ability of a rat to right itself completely within 20 seconds of being placed in dorsal recumbency. The duration of LRR is defined as the time interval between LRR and the return of righting reflex.

[2] = target: T1, GABAA receptor α4β3δ (Homo sapiens, UniProt P28472+P48169); assay: Patch clamp electrophysiology, manual patch in CHO cells; assay type: cell-based; conditions: 10 μM test article, GABA EC20 2 μM, read-out: GABA (α4β3δ) Manual patch in CHO, % efficacy at 10 μM
T1 construct: expressed in transfected cells; host or cells: CHO cells (transient, lipofection)
Description: (§1) Patch Clamp Electrophysiology of Recombinant α1β2γ2 and α4β3δ GABAA Receptors
(§2) Cellular electrophysiology is used to measure the pharmacological properties of our GABAA receptor modulators in heterologous cell systems. Each compound is tested for its ability to affect GABA mediated currents at a submaximal agonist dose (GABA EC20=2 μM). LTK cells are stably transfected with the α1β2γ2 subunits of the GABA receptor and CHO cells are transiently transfected with the α4β3δ subunits via the Lipofecatamine method. Cells were passaged at a confluence of about 50-80% and then seeded onto 35 mm sterile culture dishes containing 2 ml culture complete medium without antibiotics or antimycotics. Confluent clusters of cells are electrically coupled (Pritchett et al., Science, 1988, 242, 1306-1308.). Because responses in distant cells are not adequately voltage clamped and because of uncertainties about the extent of coupling (Verdoorn et al., Neuron 1990, 4, 919-928.), cells were cultivated at a density that enables the recording of single cells (without visible connections to other cells).
(§3) Whole cell currents were measured with HEKA EPC-10 amplifiers using PatchMaster software or by using the high throughput QPatch platform (Sophion). Bath solution for all experiments contained (in mM): NaCl 137 mM, KCl 4 mM, CaCl2 1.8 mM, MgCl2 1 mM, HEPES 10 mM, D-Glucose 10 mM, pH (NaOH) 7.4. In some cases 0.005% cremophor was also added. Intracellular (pipette) solution contained: KCl 130 mM, MgCl2 1 mM, Mg-ATP 5 mM, HEPES 10 mM, EGTA 5 mM, pH 7.2. During experiments, cells and solutions were maintained at room temperature (19° C.-30° C.). For manual patch clamp recordings, cell culture dishes were placed on the dish holder of the microscope and continuously perfused (1 ml/min) with bath solution. After formation of a Gigaohm seal between the patch electrodes and the cell (pipette resistance range: 2.5 MΩ-6.0 MΩ; seal resistance range: >1 GΩ) the cell membrane across the pipette tip was ruptured to assure electrical access to the cell interior (whole-cell patch-configuration). For experiments using the QPatch system, cells were transferred as suspension to the QPatch system in the bath solution and automated whole cell recordings were performed.
(§4) Cells were voltage clamped at a holding potential of −80 mV. For the analysis of test articles, GABA receptors were stimulated by 2 μM GABA after sequential pre-incubation of increasing concentrations of the test article. Pre-incubation duration was 30 s and the duration of the GABA stimulus was 2 s. Test articles were dissolved in DMSO to form stock solutions (10 mM). Test articles were diluted to 0.01, 0.1, 1, and 10 μM in bath solution. All concentrations of test articles were tested on each cell. The relative percentage potentiation was defined as the peak amplitude in response to GABA EC20 in the presence of the test article divided by the peak amplitude in response to GABA EC20 alone, multiplied by 100.

[3] = target: T2, GABAA receptor α1β2γ2 (Homo sapiens, UniProt P14867+P47870); assay: Patch clamp electrophysiology, Qpatch in Ltk cells; assay type: cell-based; conditions: 10 μM test article, GABA EC20 2 μM, read-out: GABA (α1β2γ2) Qpatch in Ltk, % efficacy at 10 μM
T2 construct: expressed in transfected cells
Description: as §1, §2, §3, §4

[4] = system: PTZ-treated mice; assay: Acute PTZ (pentylenetetrazol-induced seizure) assay in mice; assay type: in vivo, mouse; conditions: PO, latency to tonic seizures
Description: The anticonvulsant effect of test compounds were assessed in the pentylenetetazol-induced seizure assay in mice similar to methods described in Giardina & Gasior (2009) Curr Protoc Pharmacol., Chapter 5. Male CD-1 mice were housed in groups of five under controlled conditions (temperature of 22±2° C. and 12:12 light-dark cycle, lights on at 8:00 am) and water and food were available ad libitum. The mice were housed for 1 week prior to behavioral testing, at which time they weighed 25-35 g. Pentylenetetrazol (PTZ, Sigma) was dissolved in sterile 0.9% saline at a concentration of 12 mg/mL concentration for subcutaneous administration. Test compounds were formulated and administered via oral gavage or intraperitoneal injection at a predetermined time-point (typically 30 or 60 minutes) prior to PTZ injection. All solutions were made fresh and were given in a volume of 10 ml/kg body weight.
Mice were acclimated to the test room for at least 30 min before compound administration. Mice were randomized into at least four test groups (vehicle and at least three doses of the test compound) with 10 mice per group. […] Following the drug pretreatment time the mice were injected s.c. with PTZ (120 mg/kg). Immediately following the PTZ injection, mice were individually placed into observation chambers (25×15×15 cm) and a three-channel timer was started. Each mouse was continuously observed for 30 min and the following behaviors were recorded by observers blinded to the treatments: 1) latency to clonic convulsions that persist for 3 sec and followed by an absence of righting reflex 2) latency to tonic convulsions, characterized by the rigid extension of all four limbs that exceeded a 90 degree angle with the body 3) latency to death 4) number of clonic and tonic convulsions. Data are presented as mean±S.E.M and one-way analysis of variance with Dunnett's or Bonferroni's post-hoc test was used to detect significant differences in latency and number between the vehicle and dose group. p values<0.05 were regarded as statistically significant.

T2 sequence (P14867 28-456): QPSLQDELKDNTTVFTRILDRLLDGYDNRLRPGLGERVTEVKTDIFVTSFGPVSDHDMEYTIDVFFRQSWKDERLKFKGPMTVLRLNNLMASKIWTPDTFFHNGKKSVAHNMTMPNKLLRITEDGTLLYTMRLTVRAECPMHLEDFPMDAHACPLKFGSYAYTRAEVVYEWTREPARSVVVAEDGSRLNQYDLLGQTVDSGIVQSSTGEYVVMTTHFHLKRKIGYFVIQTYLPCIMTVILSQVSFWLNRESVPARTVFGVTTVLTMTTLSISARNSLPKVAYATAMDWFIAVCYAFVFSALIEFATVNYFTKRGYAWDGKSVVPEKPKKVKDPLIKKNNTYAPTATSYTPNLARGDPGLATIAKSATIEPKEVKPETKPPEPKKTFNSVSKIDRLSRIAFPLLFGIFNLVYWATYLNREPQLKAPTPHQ
T2 sequence (P47870 25-512 limits assumed): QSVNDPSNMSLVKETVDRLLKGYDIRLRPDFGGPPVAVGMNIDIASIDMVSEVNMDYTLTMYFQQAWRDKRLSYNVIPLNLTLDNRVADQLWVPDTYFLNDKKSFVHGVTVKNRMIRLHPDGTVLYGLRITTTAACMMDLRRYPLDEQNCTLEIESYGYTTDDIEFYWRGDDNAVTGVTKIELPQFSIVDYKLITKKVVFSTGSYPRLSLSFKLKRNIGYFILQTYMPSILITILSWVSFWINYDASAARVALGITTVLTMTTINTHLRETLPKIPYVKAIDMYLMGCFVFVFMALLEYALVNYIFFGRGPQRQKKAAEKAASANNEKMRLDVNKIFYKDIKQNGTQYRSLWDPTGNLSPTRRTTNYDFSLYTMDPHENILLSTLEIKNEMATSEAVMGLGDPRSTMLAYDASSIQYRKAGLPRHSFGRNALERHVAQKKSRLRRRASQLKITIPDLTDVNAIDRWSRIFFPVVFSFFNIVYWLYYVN
T2 sequence (P18507 40-475 partner): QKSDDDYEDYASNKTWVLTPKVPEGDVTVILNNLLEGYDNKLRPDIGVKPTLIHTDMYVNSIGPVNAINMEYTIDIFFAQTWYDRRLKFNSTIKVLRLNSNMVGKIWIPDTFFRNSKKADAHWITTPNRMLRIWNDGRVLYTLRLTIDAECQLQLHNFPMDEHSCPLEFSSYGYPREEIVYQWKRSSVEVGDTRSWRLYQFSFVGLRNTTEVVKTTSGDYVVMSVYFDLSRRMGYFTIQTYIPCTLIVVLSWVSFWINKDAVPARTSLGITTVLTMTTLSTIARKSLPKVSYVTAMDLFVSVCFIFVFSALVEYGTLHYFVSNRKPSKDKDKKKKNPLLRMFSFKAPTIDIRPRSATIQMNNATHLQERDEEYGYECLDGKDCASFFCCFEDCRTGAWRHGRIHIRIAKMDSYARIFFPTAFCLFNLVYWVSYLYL
T1 sequence (P48169 36-554): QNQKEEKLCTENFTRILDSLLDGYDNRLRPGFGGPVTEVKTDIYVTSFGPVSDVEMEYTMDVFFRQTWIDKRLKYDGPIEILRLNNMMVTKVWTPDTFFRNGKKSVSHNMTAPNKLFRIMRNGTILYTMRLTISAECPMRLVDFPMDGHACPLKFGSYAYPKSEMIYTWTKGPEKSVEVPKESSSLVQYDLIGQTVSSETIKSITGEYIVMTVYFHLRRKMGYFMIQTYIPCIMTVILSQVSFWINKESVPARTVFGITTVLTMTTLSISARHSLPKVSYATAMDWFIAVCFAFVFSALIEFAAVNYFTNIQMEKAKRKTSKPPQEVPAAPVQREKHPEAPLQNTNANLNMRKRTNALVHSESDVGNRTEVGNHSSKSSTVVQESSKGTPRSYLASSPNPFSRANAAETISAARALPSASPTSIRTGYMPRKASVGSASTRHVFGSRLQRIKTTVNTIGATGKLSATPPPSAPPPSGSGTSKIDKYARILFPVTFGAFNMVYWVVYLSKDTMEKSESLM
T1 sequence (P28472 26-473): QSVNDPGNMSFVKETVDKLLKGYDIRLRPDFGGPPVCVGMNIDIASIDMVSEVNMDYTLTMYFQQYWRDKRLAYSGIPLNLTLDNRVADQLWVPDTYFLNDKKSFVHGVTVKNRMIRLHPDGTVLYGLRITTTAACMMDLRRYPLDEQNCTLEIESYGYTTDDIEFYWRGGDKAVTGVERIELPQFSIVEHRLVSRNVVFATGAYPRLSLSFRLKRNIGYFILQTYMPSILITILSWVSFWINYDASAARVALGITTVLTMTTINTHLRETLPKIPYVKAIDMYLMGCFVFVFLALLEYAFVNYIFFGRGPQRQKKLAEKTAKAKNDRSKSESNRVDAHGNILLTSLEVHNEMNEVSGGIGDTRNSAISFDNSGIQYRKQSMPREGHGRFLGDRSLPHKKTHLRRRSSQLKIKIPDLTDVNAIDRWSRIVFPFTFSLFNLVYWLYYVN
T1 sequence (O14764 25-452 partner): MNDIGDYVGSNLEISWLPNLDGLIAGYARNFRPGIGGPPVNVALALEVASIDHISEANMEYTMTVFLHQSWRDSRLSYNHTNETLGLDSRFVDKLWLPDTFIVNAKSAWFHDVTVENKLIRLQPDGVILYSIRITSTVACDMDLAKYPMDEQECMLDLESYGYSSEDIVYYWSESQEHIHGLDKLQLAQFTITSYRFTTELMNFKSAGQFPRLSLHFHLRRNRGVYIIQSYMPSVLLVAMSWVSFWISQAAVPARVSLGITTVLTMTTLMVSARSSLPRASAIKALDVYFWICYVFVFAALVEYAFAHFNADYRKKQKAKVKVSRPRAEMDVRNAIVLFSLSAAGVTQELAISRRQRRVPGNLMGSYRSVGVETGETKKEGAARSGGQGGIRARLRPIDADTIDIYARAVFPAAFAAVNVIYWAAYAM

Question: Which “Duration of Rat LRR” value [1] does the source give for C[C@@]1(O)CC[C@H]2[C@H](CC[C@@H]3[C@@H]2CC[C@]2(C)[C@@H](C(=O)Cn4ccc(C#N)n4)CC[C@@H]32)C1 [SA-22] here?
Answer: B (15-60 min)

Question: What about the Emax at 10 µM [2] of the same compound?
Answer: 100 to 500%

Question: What about the Emax at 10 µM [3] of the same compound?
Answer: > 500%

Question: What about the “Anticonvulsive Effect Dose (minimal effective anticonvulsant dose)” value [4] of the same compound?
Answer: A (PO) (<3 mpk)

Question: For C[C@@]1(O)CC[C@H]2[C@H](CC[C@@H]3[C@@H]2CC[C@]2(C)[C@@H](C(=O)Cn4cc(S(C)(=O)=O)cn4)CC[C@@H]32)C1 [SA-17], which Emax at 10 µM [2] is on record?
Answer: 100 to 500%

Question: And the Emax at 10 µM [3]?
Answer: 100 to 500%

Question: What about the “Anticonvulsive Effect Dose (minimal effective anticonvulsant dose)” value [4] of the same compound?
Answer: A (PO) (<3 mpk)
